Measurements published in patent publication US20070282004A1, “Use of a Cyclopentenone Prostaglandin for Delaying for the Onset and/or Preventing the Continuation of Labour” (Imperial College Innovations Limited, priority 2003, published 2007).

What was measured:
PPAR-γ = target: T1, PPAR-γ (Homo sapiens, UniProt P37231); conditions: covalent modification of Cys285 (Leesnitzer et al., 2002); cited from earlier work
T1 sequence (P37231 1-505): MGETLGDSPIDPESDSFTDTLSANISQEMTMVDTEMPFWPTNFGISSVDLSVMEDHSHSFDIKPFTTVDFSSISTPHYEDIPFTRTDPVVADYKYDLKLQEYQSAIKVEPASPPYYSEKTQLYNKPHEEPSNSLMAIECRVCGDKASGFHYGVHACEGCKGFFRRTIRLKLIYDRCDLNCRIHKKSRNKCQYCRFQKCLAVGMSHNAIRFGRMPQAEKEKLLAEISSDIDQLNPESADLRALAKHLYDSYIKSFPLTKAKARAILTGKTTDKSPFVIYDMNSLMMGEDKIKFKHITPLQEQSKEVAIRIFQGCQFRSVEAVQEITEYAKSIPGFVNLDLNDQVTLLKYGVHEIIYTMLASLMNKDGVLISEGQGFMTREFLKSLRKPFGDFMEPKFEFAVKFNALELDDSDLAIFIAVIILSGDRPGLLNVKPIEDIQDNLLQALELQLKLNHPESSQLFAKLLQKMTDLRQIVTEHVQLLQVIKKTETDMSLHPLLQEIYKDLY

NF-κB [1] = target: T2, NF-κB (Homo sapiens, UniProt P19838+Q04206); test: EMSA of NF-κB DNA binding in nuclear extracts of treated amnion cells; assay type: cell-based; conditions: amnion cells treated with 15d-PGJ2 in the presence of the PPAR-γ inhibitor
T2 construct: nuclear protein extracts from myometrial cells; endogenous in cells; host or cells: primary human myometrial cells (term, passage 1-4)
T2 sequence (Q04206 whole entry): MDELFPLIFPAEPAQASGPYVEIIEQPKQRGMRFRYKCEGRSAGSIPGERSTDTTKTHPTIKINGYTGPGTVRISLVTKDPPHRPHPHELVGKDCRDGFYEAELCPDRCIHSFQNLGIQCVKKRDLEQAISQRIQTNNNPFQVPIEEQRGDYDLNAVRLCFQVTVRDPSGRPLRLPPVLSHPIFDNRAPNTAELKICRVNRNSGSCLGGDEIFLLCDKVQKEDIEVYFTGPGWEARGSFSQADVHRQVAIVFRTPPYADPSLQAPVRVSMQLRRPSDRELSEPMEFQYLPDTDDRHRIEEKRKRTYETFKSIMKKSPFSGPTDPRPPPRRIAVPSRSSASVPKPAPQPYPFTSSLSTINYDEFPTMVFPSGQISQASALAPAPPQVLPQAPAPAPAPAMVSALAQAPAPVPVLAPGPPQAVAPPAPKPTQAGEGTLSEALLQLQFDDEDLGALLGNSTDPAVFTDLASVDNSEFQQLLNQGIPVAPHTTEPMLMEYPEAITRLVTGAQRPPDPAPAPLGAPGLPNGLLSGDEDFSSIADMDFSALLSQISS
T2 sequence (P19838 1-433 limits assumed): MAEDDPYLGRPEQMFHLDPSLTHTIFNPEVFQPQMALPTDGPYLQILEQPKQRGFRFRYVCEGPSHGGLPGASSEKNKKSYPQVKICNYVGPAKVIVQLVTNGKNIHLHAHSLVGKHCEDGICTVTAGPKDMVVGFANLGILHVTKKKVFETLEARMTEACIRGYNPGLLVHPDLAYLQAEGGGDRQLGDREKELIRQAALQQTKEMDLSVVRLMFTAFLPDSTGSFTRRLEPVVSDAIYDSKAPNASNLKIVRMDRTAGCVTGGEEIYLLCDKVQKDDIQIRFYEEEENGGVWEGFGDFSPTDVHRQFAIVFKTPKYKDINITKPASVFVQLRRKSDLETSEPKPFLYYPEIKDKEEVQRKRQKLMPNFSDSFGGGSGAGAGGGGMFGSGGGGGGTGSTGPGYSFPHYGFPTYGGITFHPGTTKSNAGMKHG
Method: (§1) Placentae were obtained from patients at term either at elective Caesarean section prior to labour (L−) or following spontaneous labour onset and vaginal delivery (L+). Amnion cells were prepared as described in Bennett et al., (1989). Briefly, the amnion was separated from the placenta, washed 3× in PBS, cut into strips, and incubated in 0.5 mM EDTA in PBS for 15 min. The strips were washed in PBS 2× and digested with 2.5 mg/ml dispase in serum-free DMEM for 35 min at 37° C. The amnion was then shaken vigorously in DMEM, 10% FCS to dissociate the cells, the remaining strips discarded, and the cell suspension pelleted at 175 g for 10 min and cultured in DMEM, 10% FCS (Sigma), 1% L-glutamine, 1% penicillin-streptomycin.
(§2) Nuclear and cytosolic protein extracts were obtained from cultured amnion cells as described by Schreiber et al (1989). For nuclear/cytosolic fractionation, confluent cell monolayers were scraped and lysed using a buffer containing 10 mM HEPES, 10 mM KCl, 0.1 mM EDTA, 0.1 mM EGTA, 2 mM DTT, 1% (v/v) NP-40 and complete protease inhibitor tablets (CPIs, Roche), diluted to manufacturer's instructions. Cell lysates were incubated on ice for 10 min and NP-40 added to a final concentration of 1% (v/v). Lysates were vortexed for 10 secs and centrifuged for 30 secs at 4° C., 12000 g. The supernatants were retained as the cytosolic protein extracts. The pellets were resuspended in buffer containing 10 mM HEPES, 10 mM KCl, 0.1 mM EDTA, 0.1 mM EGTA, 2 mM DTT, 400 mM NaCl, 1% NP-40 (v/v) and CPIs. Samples were shaken vigorously for 15 min in an ice bath. The nuclear protein extracts were obtained in the supernatant following a 5 min centrifugation at 4° C., 12000 g.
(§3) Sense and antisense strands (175 nmole/ml each) were incubated in annealing buffer (10 mM Tris-HCl pH7.5, 100 mM NaCl, 1 mM EDTA) for 10 min at 65° C., and allowed to cool at room temperature for 2 h. 3.5 pmole double-stranded oligonucleotides were end-labelled with 0.37 MBq ^32P(γATP) by incubating for 30 min at 37° C. with T4 polynucleotide kinase. Labelled oligonucleotides were recovered by centrifugation at 3000 rpm for 2 min through MicroSpin G-25 or G-50 sephadex columns (Amersham Biosciences).
(§4) 3-5 μg protein extracts were incubated on ice for 1 h with non-radiolabelled non-specific oligonucleotide (poly(dI-dC) or Oct-1) in a binding buffer (20% (v/V) glycerol, 5 mM MgCl2, 2 mM EDTA, 50 mM Tris-HCl pH7.5, 250 mM NaCl, 2 mM DTT), followed by a 45 min incubation with 0.035 pmole ^32P(γ(ATP)-end labelled oligonucleotide probes:
(§5) Oct-1 or SP-1 consensus sequences were used as a controls for a NF-κB-specific effect. The resulting protein/DNA complexes were separated in a 4% acrylamide gel, the gel dried under vacuum at 80° C. and exposed to X-ray film. For supershift analysis, samples were incubated with 2 μg antibodies for 30 min on ice prior to incubation with oligonucleotides. Non-radio-labelled oligonucleotides were used at 100-fold molar excess for specific and non-specific competition for DNA binding. Reagents for EMSA were obtained from Promega Life Sciences, Delta House, Chilworth Research Centre, Southampton SO16 7NS, United Kingdom.

NF-κB [2] = test: NF-κB-dependent luciferase reporter (κB.BG.Luc) in amnion cells; assay type: cell-based, human; conditions: L− or L+ amnion cells, treated 2 h, IL-1β 1 ng/ml 6 h
Method: . Values are normalised for b-gal reporter activity.
as §1
pGL3.6κB.BG.luc was the reporter construct used to assess NF-κB-mediated transcription, while the mutant pGL3.6κBmut.luc and empty pGL3.BG.luc were used as controls (Schwarzer et al., 1998).
pGL3.6κB.BG.luc: a NF-κB-dependent reporter construct with 6 copies of the NF-κB binding site. It contains two tandem repeats of the sequence 5′-GGG GAC TTT C CC TGGGGACTTTCCCTGGGGACTTTCCC-3′, which contains three copies of the decameric NF-κB binding site (underlined) upstream of a minimal β-globin promoter driving a luciferase gene.
Cells were co-transfected with the renilla vector pRL-CMV or β-galactosidase vector pCH110 as internal controls for transfection efficiencies.

COX-2 = test: Western immunoblot of IL-1β-induced COX-2 protein in myometrial cells; assay type: cell-based, human; conditions: treated 2 h, IL-1β 6 h
Method: (§6) Myometrial tissue was collected at term from the upper margin of uterine incision at the time of lower segment caesarean section either prior to the onset of labour (L−) or […] (L+). L+ samples were collected by Dr Mark Johnson and Dr S Soorrana at Chelsea & Westminster Hospital. Myometrial tissue was dissected, rinsed in PBS, and digested in serum-free DMEM containing 15 mg/ml collagenase 1A (Sigma), 15 mg/ml collagenase X, and 50 mg/ml bovine serum albumin for 45 min at 37° C. The cell suspension was filtered through a cell strainer, centrifuged at 400 g for 5 min, and the pellet re-suspended and plated out in DMEM, 10% FCS (Helena BioScience), 1% L-glutainine, 1% penicillin-streptomycin. Cells were used between passage numbers 1-4.
Nuclear and cytosolic protein extracts were obtained from cultured amnion cells as described by Schreiber et al (1989). […]
Protein samples (20-70 μg) were mixed with Laemmli sample buffer (1:1) containing β-mercaptoethanol (5%), and boiled for 5 min. […] The blots were then incubated with HRP-conjugated secondary antibody (diluted 1:2000 in 1% non-fat milk in PBS-T buffer) for 1 h and washed three times (10 min each) in PBS-T. Signal detection was achieved using enhanced chemi-luminescence (ECL plus system, Amersham Pharmacia Biotech) according to manufacturer's instructions. […]

NF-κB [3] = target: T2, NF-κB; test: EMSA of NF-κB DNA binding in nuclear extracts of treated myometrial cells; assay type: cell-based; conditions: myometrial cells
Method: as §6, §2, §3, §4, §5

PPARα = conditions: GAL4 chimera transfection system (Kehrer et al., 2001); cited from earlier work

| SMILES | Binding to PPAR-γ (PPAR-γ) | Alleviation of 15d-PGJ2 inhibition of NF-κB DNA binding (NF-κB [1]) | Alleviation of 15d-PGJ2 inhibition of NF-κB DNA binding (NF-κB [1]; listed as GW9662) | IL-1β-induced NF-κB transcriptional activity (κB.BG.Luc reporter) (NF-κB [2]) | IL-1β-induced COX-2 expression (COX-2) | NF-κB DNA binding (EMSA) (NF-κB [3]; 10-100 μM concentrations) | IL-1β-induced NF-κB DNA binding (EMSA) (NF-κB [3]; treated 2 h, then IL-1β 15 min) | Doses that transactivate PPARα (PPARα) [µM] |
| --- | --- | --- | --- | --- | --- | --- | --- | --- |
| O=C(Nc1ccccc1)c1cc([N+](=O)[O-])ccc1Cl [GW-9662, reference compound] | binds irreversibly | failed to alleviate | does not alleviate |  |  |  |  |  |
| Cc1cccc(Nc2cc(Cl)nc(SCC(=O)O)n2)c1C [WY-14643, reference compound] |  |  |  | did not | not | had no effect | do not inhibit | 5 to 25 |
